Each structure is given as a SMILES string.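 Each compound was tested at five concentrations against cells in 96-well plates for 48 hours. TGI is the concentration that stops growth completely.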 A value given as a limit tells only on which side of the number the result lay.

This is an account of results in PubChem BioAssay (NCI).

Some test systems named below: A498 renal; A549 NSCLC; CAKI-1 renal; DU-145 prostate; HCT-116 colon; HOP-62 NSCLC; HT29 colon; MDA-MB-435; MDA-N; NCI-H226 lung; PC-3 prostate; SF-295 CNS; SN12C renal; SR leukemia; SW-620 colon; TK-10 renal; U251 CNS; UACC-62 melanoma; UO-31 renal; LOX IMVI melanoma.
What all share (test): NCI tumour cell line growth inhibition, 48 h

With `O=C(c1ccsc1)c1cc2c(s1)C(=O)c1ccsc1C2=O`, the TGI is 2.94 µM in the assay on A498 renal; 1.25 µM in the assay with A549 NSCLC; 1.57 µM in the assay on CAKI-1 renal; 0.296 µM in the assay with DU-145 prostate; 0.468 µM in the assay with HCT-116 colon; 0.431 µM with HOP-62 NSCLC. Besides, the TGI was determined as 4.08 µM in the assay on HT29 colon; 0.0696 µM with MDA-MB-435; 0.0512 µM in the assay with MDA-N; 1.11 µM with NCI-H226 lung; 0.933 µM in the assay with PC-3 prostate; 0.324 µM in the assay with SF-295 CNS. Moreover, the TGI in the assay with SN12C renal was 0.125 µM; in the assay with SR leukemia it was more than 100 µM; in the assay with SW-620 colon it was 0.341 µM; with TK-10 renal, 1.25 µM; with U251 CNS, 0.34 µM; in the assay on UACC-62 melanoma it was 0.385 µM. Moreover, in the assay with UO-31 renal, the TGI came to 0.25 µM.
As for `COc1ccc(Cc2nc3cc(Cl)ccc3o2)cc1`, the TGI in the assay on A549 NSCLC, in the assay on CAKI-1 renal, with DU-145 prostate, with HCT-116 colon, with HOP-62 NSCLC and with HT29 colon was more than 100 µM throughout. Further, the TGI in the assay on LOX IMVI melanoma was more than 100 µM; with MDA-MB-435 it was 69 µM; in the assay with MDA-N, more than 100 µM; in the assay on NCI-H226 lung, more than 100 µM; in the assay on PC-3 prostate, more than 100 µM; with SF-295 CNS it was more than 100 µM. The TGI with SN12C renal, in the assay on SR leukemia, in the assay on SW-620 colon, in the assay with TK-10 renal, in the assay on U251 CNS and with UACC-62 melanoma was more than 100 µM throughout. The molecule further had a TGI in the assay on UO-31 renal of more than 100 µM.
For the molecule `CCN(CC)C(=O)C1=C(C)NC(C)=C(C(=O)N(CC)CC)C1`, the TGI with A498 renal, with A549 NSCLC, in the assay on CAKI-1 renal, in the assay with DU-145 prostate, with HCT-116 colon and with HOP-62 NSCLC was more than 100 µM in each case. Further, the TGI with LOX IMVI melanoma, with MDA-MB-435, in the assay on MDA-N, in the assay with PC-3 prostate, in the assay on SF-295 CNS and in the assay with SN12C renal was more than 100 µM each time. Also, the TGI in the assay with SR leukemia, in the assay with SW-620 colon, in the assay on TK-10 renal, with U251 CNS, in the assay on UACC-62 melanoma and in the assay on UO-31 renal was more than 100 µM throughout.
With `COc1cccc(N=N/C(=N/NC(=O)c2cc(Cl)ccc2O)c2ccc(N(CCC#N)CCC#N)cc2C)c1`, the TGI in the assay with A498 renal, in the assay on A549 NSCLC, in the assay with CAKI-1 renal, with DU-145 prostate, in the assay on HCT-116 colon and in the assay with HOP-62 NSCLC was more than 100 µM in each case. Further, the TGI with HT29 colon, in the assay on MDA-MB-435, with MDA-N, in the assay with NCI-H226 lung, in the assay with PC-3 prostate and in the assay with SF-295 CNS was more than 100 µM each time. For the same molecule, the TGI with SN12C renal, with SR leukemia, with TK-10 renal, in the assay with U251 CNS, in the assay with UACC-62 melanoma and in the assay on UO-31 renal was more than 100 µM each time.
For `NC(N)=NS(=O)(=O)c1ccc(Nc2c3ccccc3nc3ccc(C(=O)Nc4ccc(S(N)(=O)=O)cc4)cc23)cc1`, the TGI in the assay with A549 NSCLC, with CAKI-1 renal, in the assay on DU-145 prostate, with HCT-116 colon, with HOP-62 NSCLC and in the assay on HT29 colon was more than 100 µM throughout. Besides, the TGI with LOX IMVI melanoma, in the assay on MDA-MB-435, with MDA-N, in the assay with NCI-H226 lung, with PC-3 prostate and in the assay with SF-295 CNS was more than 100 µM throughout. Moreover, the TGI with SN12C renal, in the assay on SR leukemia, in the assay on SW-620 colon, in the assay with TK-10 renal, in the assay with U251 CNS and with UACC-62 melanoma was more than 100 µM throughout. The same molecule showed a TGI with UO-31 renal of more than 100 µM.
Take `CC1=C(C(=O)OCCc2ccc([N+](=O)[O-])cc2)C(c2ccccc2C(F)(F)F)C(C(=O)OC(C)C)=C(C)N1` (stereo unspecified): the TGI with A549 NSCLC, in the assay on CAKI-1 renal, in the assay with DU-145 prostate, in the assay with HCT-116 colon, in the assay on HOP-62 NSCLC and with HT29 colon was more than 100 µM each time. Also, the TGI with LOX IMVI melanoma was more than 100 µM; in the assay on MDA-MB-435 it was more than 100 µM; with MDA-N it was more than 100 µM; with NCI-H226 lung it was 21.5 µM; in the assay with PC-3 prostate it was more than 100 µM; with SF-295 CNS it was more than 100 µM. Further, the TGI in the assay on SN12C renal was 26.7 µM; with SR leukemia it was more than 100 µM; with SW-620 colon, more than 100 µM; in the assay with TK-10 renal, more than 100 µM; with U251 CNS, more than 100 µM; with UACC-62 melanoma, 36.5 µM. In the assay on UO-31 renal, the TGI was more than 100 µM.
On to `CN(C)C(=O)c1nnsc1NN=O`, for which the TGI with A549 NSCLC, with CAKI-1 renal, in the assay on DU-145 prostate, with HCT-116 colon, in the assay with HOP-62 NSCLC and in the assay with HT29 colon was more than 100 µM in each case. The TGI in the assay on LOX IMVI melanoma, in the assay with MDA-MB-435, in the assay on MDA-N, with NCI-H226 lung, in the assay with PC-3 prostate and with SF-295 CNS was more than 100 µM in each case. Moreover, the TGI with SN12C renal, in the assay on SR leukemia, in the assay on SW-620 colon, in the assay with U251 CNS, in the assay with UACC-62 melanoma and in the assay with UO-31 renal was more than 100 µM in each case.
As to `CC(=O)O[C@@]12[C@@H]3O[C@@]4(O)C[C@]5(C)[C@H]6C[C@@](C(C)C)(O[C@H]5c5ccoc5)O[C@H]1[C@]6(C4)O[C@]2(O)C(C)=CC3(C)C`, the TGI in the assay with A549 NSCLC, in the assay with CAKI-1 renal, in the assay on DU-145 prostate, in the assay on HCT-116 colon, with HOP-62 NSCLC and in the assay on HT29 colon was more than 100 µM in each case. For the same molecule, the TGI with LOX IMVI melanoma, with MDA-MB-435, with MDA-N, with NCI-H226 lung, with PC-3 prostate and with SF-295 CNS was more than 100 µM throughout. In addition, the TGI in the assay on SN12C renal, in the assay with SR leukemia, in the assay on SW-620 colon, in the assay with TK-10 renal, in the assay with U251 CNS and in the assay with UACC-62 melanoma was more than 100 µM throughout. Besides, in the assay with UO-31 renal, the TGI was more than 100 µM.
Consider `CCOC(=O)CC/C(C)=N\n1c(Cc2ccc(Cl)cc2)n[nH]c1=O`, for which the TGI with A549 NSCLC, with CAKI-1 renal, in the assay with DU-145 prostate, in the assay on HCT-116 colon, with HOP-62 NSCLC and with HT29 colon was more than 100 µM throughout. In addition, the TGI in the assay with LOX IMVI melanoma, in the assay with MDA-MB-435, in the assay with MDA-N, in the assay with NCI-H226 lung, with PC-3 prostate and in the assay with SF-295 CNS was more than 100 µM in each case. Moreover, the TGI in the assay with SN12C renal, in the assay with SR leukemia, in the assay on SW-620 colon, with TK-10 renal, in the assay on U251 CNS and in the assay with UACC-62 melanoma was more than 100 µM in each case. For the same molecule, the TGI in the assay on UO-31 renal was more than 100 µM.
On to `CSc1sc(C)cc1-c1nsc(=O)o1`, for which the TGI in the assay with A498 renal, with A549 NSCLC, in the assay on CAKI-1 renal, in the assay on DU-145 prostate, with HCT-116 colon and in the assay on HT29 colon was more than 100 µM in each case. The TGI with LOX IMVI melanoma, in the assay with MDA-MB-435, with MDA-N, in the assay with PC-3 prostate, in the assay with SF-295 CNS and in the assay with SN12C renal was more than 100 µM each time. Besides, the TGI in the assay with SR leukemia, in the assay on SW-620 colon, in the assay on U251 CNS, in the assay with UACC-62 melanoma and in the assay with UO-31 renal was more than 100 µM each time.
Consider `NNC(=O)CC(=O)Nc1ccc(C(=O)O)cc1`, for which the TGI in the assay with A549 NSCLC, with CAKI-1 renal, in the assay with DU-145 prostate, in the assay on HCT-116 colon, in the assay with HOP-62 NSCLC and with HT29 colon was more than 100 µM in each case. Besides, the TGI with LOX IMVI melanoma, with MDA-MB-435, with MDA-N, in the assay with NCI-H226 lung, with PC-3 prostate and in the assay with SF-295 CNS was more than 100 µM throughout. The TGI in the assay on SN12C renal, in the assay with SR leukemia, in the assay on SW-620 colon, in the assay on TK-10 renal, with U251 CNS and in the assay with UACC-62 melanoma was more than 100 µM in each case. In the assay with UO-31 renal, this molecule registered a TGI of more than 100 µM.
For `COc1cc(S(=O)(=O)N/N=C/C=C/c2ccccc2)c(OC)cc1NC(C)=O`, the TGI in the assay with A498 renal, with A549 NSCLC, with CAKI-1 renal, with DU-145 prostate, with HCT-116 colon and with HOP-62 NSCLC was more than 100 µM in each case. Further, the TGI with HT29 colon, in the assay on LOX IMVI melanoma, with MDA-MB-435, in the assay on MDA-N, with PC-3 prostate and with SF-295 CNS was more than 100 µM throughout. Further, the TGI in the assay on SN12C renal, in the assay with SR leukemia, in the assay with SW-620 colon, with UACC-62 melanoma and in the assay on UO-31 renal was more than 100 µM each time.
